The record followed here is patent US20250171404A1, “PCNA INHIBITORS AND USES THEREOF” (CITY OF HOPE, priority 2022, published 2025).

This experiment relates to H82 xenograft tumors. The experiment can be described thus: Xenograft tumor model, small-cell lung cancer. The settings on record: 40 mg/kg twice daily, oral, vs vehicle. Format: in vivo, mice. The method, then: FIGS. 4A-4H. Pharmacokinetics and anti-tumor growth activity of AOH1996 in vivo. FIG. 4A: After oral administration, the plasma concentrations of AOH1996 from three male and three female ES1^e/SCID mice at the indicated time points were averaged and graphed ±S.D. The inset contains PK parameters determined by a standard noncompartmental method. FIG. 4B: A similar PK study of AOH1996 was performed in dogs. FIGS. 4C-4E: Mice bearing the xenograft tumors of neuroblastoma (FIG. 4C: SK-N-BE(2)c), breast cancer (FIG. 4D: MDA-MB-468), and small-cell lung cancer (FIG. 4E: H82) were given vehicle only (black) or 40 mg/kg of AOH1996 (grey) twice daily immediately after the first measurement. Tumor sizes were measured by a dial caliper each week. Tumor volumes (0.4×L×W^2) were averaged and graphed ±S.E. (*, P<0.01). FIG. 4F: Animal body weight was monitored throughout the studies as an indicator of toxicity. […] FIG. 4G: The levels of phosphor-Chk1 (pChk1) and γH2A.X in SK-N-BE(2)c derived tumor samples were analyzed by IHC. […] The p values determined by the Log-rank (Mantel-Cox) test between combination treatment and each of the control groups are p=0.0003 (Combination vs. NoRx), p=0.005 (Combination vs. AOH1996 alone), and p=0.024 (Combination vs. CPT-11 alone).
In vivo tumor model. […] Tumor size and animal weight were measured weekly. […]

`COc1cccc(Oc2ccccc2NC(=O)CNC(=O)c2cccc3ccccc23)c1` [AOH1996, N-(2-((2-(3-methoxyphenoxy)phenyl)amino)-2-oxoethyl)-1-naphthamide]: the tumor burden entry is on record as “significantly reduced tumor burden”.
